In article PMC11434354, “Metabolic and Pharmacokinetic Profiling Studies of N, N-Dimethylaniline-Heliamine in Rats by UHPLC-Q-Orbitrap MS/MS” (Molecules, 2024):
Read-outs that look alike come from different tables or passages of the source.

Key:
[1] = Pharmacokinetic study of DH in rats after oral and intravenous administration (non-compartmental analysis); format: in vivo, male Sprague–Dawley (SD) rats; conditions: for MRT last: read-out: MRT0–t; for MRT inf: read-out: MRT0–∞; for half-life: read-out: T1/2 (terminal half-life) (converted)
Experimental: The Xinjiang Medical University (Xinjiang, China) provided twelve male Sprague–Dawley (SD) rats (weight 200 ± 20 g). The Animal Experimentation Ethics Committee of Xinjiang Medical University gave its approval to all animal experiments. DH was created using a mixture consisting of 2% ethanol, 8% Kolliphor, and 90% distilled water. Twelve rats were selected randomly and divided into two groups. Before administering the oral dose, the rats were fasted for 12 h but were allowed access to water. Each rat in the oral group was orally given 19.2 mg/kg of DH. Blood samples were collected from their ophthalmic veins at 0, 0.25, 0.5, 1, 1.5, 2, 4, 8, 12, and 24 h for the oral study. In the intravenous group, each rat was given an intravenous tail injection of 1.9 mg/kg of DH. Blood was collected from their ocular veins at 0, 0.1, 0.25, 0.5, 0.75, 1, 1.5, 3.4, 7.5, 12, and 24 h for further analysis. The collected plasma was thereafter subjected to centrifugation (14,000 rpm) for 10 min in a 1.5 mL polyethylene collection tube with EDTA. Following centrifugation, the supernatant was stored in a refrigerator at –80 °C.
Rat plasma samples were assessed for DH using a Thermo Fisher Scientific Q Exactive Plus Orbitrap MS and a Dionnex Ultimate 3000 RSL nano System (Thermo Fisher Scientific, Bremen, Germany). Chromatographic separation was performed with a pre-column (1.7 µm) and an ACQUITY UHPLC BEH C18 column (2.1 × 75 mm, 1.7 µm). The procedure utilized a 10 µL injection volume and was carried out for 5 min at 0.2 mL/min isocratic (70%A (0.1% formic acid in water): 30%B (acetonitrile)). The temperature of the RS autosampler was maintained at 10 °C, and the column was set at 35 °C. Positive electrospray ionization (ESI) and the Parallel Reaction Monitor (PRM) mode were employed to identify DH and the IS. AGC targets were set at 1 × 10^6, the maximum iteration time at 100 ms, the spray voltage at 3.2 kV, the capillary temperature at 320 °C, the S-lens RF level at 55, and 10 and 38 for the IS of the high collision dissociation cell of DH were the MS parameters used. The PRM transitions for DH and IS were 313.19/192.10 (m/z) and 400.18/310.12 (m/z), respectively.
Dissolve PK samples were stored at −80 °C at room temperature. We added 10 µL of 30% acetonitrile water and vortexed it for 3 s. We then added 10 µL of IS and vortexed it for 3 s. Then, 300 µL of acetonitrile was added to the above plasma, vortexed for 1 min, and centrifuged for 7 min. The mixture supernatant was collected and blown dry at 40 °C under nitrogen. Blow-dried samples were re-dissolved in 100 μL of 30% acetonitrile in water and centrifuged for 7 min.
Twelve male SD rats, weighing […], were used to perform PK studies on DH. SD rats fasted for 12 h before administration, but the water was freely available. Normal drinking and eating resumed four hours after administration. To study the bioavailability and PK parameters of DH, rats were randomly divided into two groups. The dose administered was 1.9 mg/kg for the intravenous group and 19.2 mg/kg for the oral administration group. Oral bioavailability was calculated using Equation (2) as follows:Oral bioavailability (%) = (AUCp.o. × Dosei.v./AUCi.v. × Dosep. o.) × 100%(2)
The Q Exactive Plus Orbitrap MS data were acquired using the Thermo Xcalibur 4.2. software (Thermo Fisher Scientific, Waltham, MA, USA). The Qual Browser was used to extract ion chromatograms for screening candidate metabolites with a mass tolerance of 5 ppm and a mass precision of 4 decimals. In addition, MS/MS fragment ions were extracted for structural confirmation of candidate metabolites. The Qual Browser was used for the quantification of DH in rat plasma. Pharmacokinetic parameters were processed using the non-compartmental pharmacokinetic data analysis software program of MaS Studio 1.5.2.14 stable (Shanghai Boca Pharmaceutical Technology Co., Shanghai, China). Finally, the results were described as arithmetic mean ± SD.

[2] = Long-term storage stability of DH stock solutions; format: physicochemical
Experimental: Although acetonitrile precipitates most of the protein, plasma samples contain phospholipids, metabolites, etc., that interfere with the detection of DH and IS. Specificity was mainly examined at DH and IS retention times without interference peaks in blank plasma. In addition, samples tested after administration should not show interfering peaks at the DH and IS peak times. The standard curves were made up of 8 nonzero analyte points, and the linearity was tested. The correlation of peak area (analyte/IS) with the labeled plasma concentration was plotted for regression analysis. This analyte was predicted to have a correlation coefficient (r^2) of more than 0.99 with the corresponding standard curve. The relative standard deviation (RSD) and relative error (RE) values were calculated by measuring six repeated QC samples on the same day to evaluate the intra-day precision and accuracy. Inter-day precision and accuracy were characterized by RSD and RE, respectively. The recoveries were determined by examining the ratio of the peak areas of DH before and after extraction. The matrix effect is the ratio of the peak area of DH added to plasma and DH dissolved in the solvent. The stability evaluation should guarantee that the concentration of the analyte remains unchanged throughout the sample preparation and analysis process, as well as during storage. Stability studies include long-term storage stability at −80 °C (1, 7 and 15 days); repeated freeze–thaw stability; autosampler stability; room temperature stability; and long-term storage stability of stock solutions.

[3] = test system: Sarcoplasmic reticulum RyR2Ca^2+ channels; set-up: method as in doi:10.13005/bpj/1892; conditions: cited from earlier work
[4] = set-up: method as in doi:10.37547/TAJMSPR/Volume02Issue07-17; conditions: cited from earlier work
[5] = I.V. 1.9 mg/kg, n = 6, mean ± SD
[6] = P.O. 19.2 mg/kg, n = 6, mean ± SD
[7] = male, Sprague-Dawley, rat, plasma, iv, I.V. 1.9 mg/kg, n = 6, mean ± SD
[8] = male, Sprague-Dawley, rat, plasma, po, P.O. 19.2 mg/kg, n = 6, mean ± SD

## COc1cc2c(cc1OC)C(c1ccc(N(C)C)cc1)NCC2 (stereo not drawn) [DH, N, N-dimethylaniline-heliamine]
[1]; [5]
  AUC0–t: 439 ± 30.1 ng·h/mL
  AUC0–∞: 495 ± 36.4 ng·h/mL
[1]; I.V. 1.9 mg/kg, n = 6, mean ± SD, 1.9 mg/kg
  Vd (apparent volume of distribution): 15,514.58 ± 2159.74 mL/kg
[1]; [6]
  AUC0–t: 707 ± 265 ng·h/mL
  AUC0–∞: 748 ± 279 ng·h/mL
  CL (clearance): 30,148.65 ± 15,354.27 mL/h/kg
  Vd (apparent volume of distribution): 126,728.09 ± 56,867.09 mL/kg
[1]; male, Sprague-Dawley, rat, plasma, iv, 1.9 mg/kg, I.V. 1.9 mg/kg, n = 6, mean ± SD, read-out: Vd (apparent volume of distribution)
  Vd: 15.1 L/kg
[1]; [7]
  Cmax: 183 ± 33.6 ng/mL
  MRT last: 2.49 ± 0.33 h
  MRT inf: 3.56 ± 0.26 h
  half-life: 2.79 ± 0.34 h
[1]; male, Sprague-Dawley, rat, plasma, iv, I.V. 1.9 mg/kg, n = 6, mean ± SD, read-out: CL (clearance) (converted)
  clearance: 64.3 mL/min/kg
[1]; male, Sprague-Dawley, rat, plasma, oral, P.O. 19.2 mg/kg vs I.V. 1.9 mg/kg, read-out: Fabs (absolute oral bioavailability)
  bioavailability: 16.1%
[1]; [8]
  Cmax: 121 ± 42.4 ng/mL
  Tmax: 1.5 h
  MRT last: 4.07 ± 0.34 h
  MRT inf: 4.76 ± 0.4 h
  half-life: 2.96 ± 0.32 h
[2]; nominal concentration 10 ng/mL
  Accuracy, Stock solution: 104.96%
[2]; nominal concentration 100 ng/mL
  Accuracy, Stock solution: 99.49%
[2]; nominal concentration 500 ng/mL
  Accuracy, Stock solution: 96.24%
[3]
  inhibition of sarcoplasmic reticulum RyR2 Ca2+ channels: inhibited
[4]
  antiarrhythmic activity: promising antiarrhythmic activity
